# Measured values taken from patent US9499466B2, “Diene-based carboxylate anion and salt thereof, and polymerizable or curable composition thereof” (NIPPON SHOKUBAI CO., LTD., priority 2010, dated 2016).
# Columns and labels:
# [1] = Solubility test (dissolution method)
# Description: The solubility evaluation by the dissolution method requires complicated operations and a large amount of test sample. Therefore, this test is not suitable for screening. However, the solubility of each compound can be more accurately evaluated.
# [2] = Solubility test (film-forming method); conditions: for Solubility (film-forming method) Water: solvent dropped on film on glass plate
# Procedure: Each compound was applied on a glass plate and the glass plate was leaned against the wall. Each solvent shown in Table 5 was dropped (5 to 6 drops) on the glass plate with a pasteur pipette. The glass plate was visually observed after the dropped solvent was dried, the surface was optionally rubbed with a spatula, and the solubility (film-forming method) was evaluated according to the criteria shown in Table 4.
Structure (SMILES),Solubility (dissolution method) THF [1],Solubility (dissolution method) Toluene [1],Solubility (film-forming method) Water [2],also measured
C=CCOCC(=C)C(=O)[O-].C=CCOCC(=C)C(=O)[O-].[Cu+2] [Cu(AMA)2],◯◯ (Become uniform and transparent at a compound concentration of 20% or more),,,
C=CCOCC(=C)C(=O)[O-].C=CCOCC(=C)C(=O)[O-].C=CCOCC(=C)C(=O)[O-].[Au+3] [Au(AMA)3],,,,Solubility (film-forming method) Toluene [2]: X-Δ
C=CCOCC(=C)C(=O)[O-].C=CCOCC(=C)C(=O)[O-].C=CCOCC(=C)C(=O)[O-].[Eu+3] [Eu(AMA)3],◯◯ (Become uniform and transparent at a compound concentration of 20% or more),◯ (Become uniform and transparent at a compound concentration of 10%),,
C=C(C)C(=O)[O-].C=CCOCC(=C)C(=O)[O-].C=CCOCC(=C)C(=O)[O-].[In+3] [In(AMA)2(MAA)1],,◯◯ (Become uniform and transparent at a compound concentration of 20% or more),,Solubility (film-forming method) Methanol [2]: X-Δ
C=C(C)COCC(=C)C(=O)[O-].C=C(C)COCC(=C)C(=O)[O-].[Zn+2] [Zn(MAMA)2],,◯◯ (Become uniform and transparent at a compound concentration of 20% or more),X-Δ,
C=CCOCC(=C)C(=O)[O-].C=CCOCC(=C)C(=O)[O-].C=CCOCC(=C)C(=O)[O-].[Cr+3] [Cr(AMA)3],,◯◯ (Become uniform and transparent at a compound concentration of 20% or more),,Solubility (film-forming method) Methanol [2]: X-Δ
C=CCOCC(=C)C(=O)[O-].C=CCOCC(=C)C(=O)[O-].CCC[O][Zr+2][O]CCC [(n-C3H7O)2Zr(AMA)2],◯◯ (Become uniform and transparent at a compound concentration of 20% or more),◯◯ (Become uniform and transparent at a compound concentration of 20% or more),,"Solubility (film-forming method) Acetone ([2]; Acetone): X-Δ; Solubility (film-forming method) Acetonitrile ([2]; Acetonitrile): X-Δ; Solubility (film-forming method) Ethyl acetate ([2]; Ethyl acetate): X-Δ; Solubility (film-forming method) Methanol [2]: X-Δ; Solubility (film-forming method) THF ([2]; THF): X-Δ; Solubility (film-forming method) Toluene [2]: X-Δ; Solubility (dissolution method) Acetone ([1]; Acetone): ◯◯ (Become uniform and transparent at a compound concentration of 20% or more); Solubility (dissolution method) Acetonitrile ([1]; Acetonitrile): X (Not become uniform and transparent even at a compound concentration of 1%); Solubility (dissolution method) Ethyl acetate ([1]; Ethyl acetate): ◯ (Become uniform and transparent at a compound concentration of 10%); Solubility (dissolution method) Methanol ([1]; Methanol): X (Not become uniform and transparent even at a compound concentration of 1%); Solubility (dissolution method) Water ([1]; mixed at 1%, 3%, 5%, 10%, 20% or more, Water): X (Not become uniform and transparent even at a compound concentration of 1%)"
C=CCOCC(=C)C(=O)[O-].C=CCOCC(=C)C(=O)[O-].[Mn+2] [Mn(AMA)2],,◯◯ (Become uniform and transparent at a compound concentration of 20% or more),X-Δ,
C=CCOCC(=C)C(=O)[O-].C=CCOCC(=C)C(=O)[O-].C=CCOCC(=C)C(=O)[O-].[La+3] [La(AMA)3],◯◯ (Become uniform and transparent at a compound concentration of 20% or more),◯ (Become uniform and transparent at a compound concentration of 10%),X-Δ,
C=CCOCC(=C)C(=O)[O-].C=CCOCC(=C)C(=O)[O-].C=CCOCC(=C)C(=O)[O-].[Bi+3] [Bi(AMA)3],,,X-Δ,
C=CCOCC(=C)C(=O)[O-].C=CCOCC(=C)C(=O)[O-].[CH3][Sn+2][CH3] [(CH3)2Sn(AMA)2],,◯◯ (Become uniform and transparent at a compound concentration of 20% or more),,
C=C(C)C(=O)[O-].C=CCOCC(=C)C(=O)[O-].[CH3][Sn+2][CH3] [(CH3)2Sn(AMA)1(MAA)1],,◯◯ (Become uniform and transparent at a compound concentration of 20% or more),,
C=C(C)C(=O)[O-].C=CCOCC(=C)C(=O)[O-].[Ni+2] [Ni(AMA)1(MAA)1],,◯◯ (Become uniform and transparent at a compound concentration of 20% or more),,
